Measurements published in patent publication US7078209B2, “CAK inhibitors and uses thereof” (Vertex Pharmaceuticals Incorporated, priority 2001, dated 2006).

biological target: CDK activating kinase (CAK) from Candida albicans (Candida albicans, UniProt A0A1D8PH53); test: Candida albicans CAK kinase assay: phosphorylation of human CDK2 with 33P labeled ATP; assay type: biochemical; details: 2 nM CAK, 0.3 μM CDK2·FSBA, 10 μM ATP, room temperature, pH 7.5
Experimental: Activity of CDK activating kinase (CAK) from Candida albicans was measured by following the phosphorylation of human cyclin dependent kinase 2 (CDK 2) with ^33P labeled ATP. Reactions were carried out at room temperature in 100 mM HEPES, pH 7.5, 1 mM MgCl2, 100 mM NaCl and 1 mM DTT. Final concentrations of CAK and CDK2 were 2 nM and 300 nM, respectively. The CDK-2 substrate was inactivated with 5′ fluorosulfonylbenzoyladenosine (FSBA) to oblate its intrinsic ATPase activity. Test compounds in DMSO (final concentrations 30 μM, 1.5% DMSO) were first incubated with CAK and CDK2 for 40 minutes, then the reaction initiated by addition of ^33P ATP (final concentration 10 μM, specific activity=[…], NEN, Boston, Mass.). The reaction was allowed to proceed for 40 minutes and quenched by addition of 10% TCA containing 250 mM ATP. The quenched reaction was harvested onto GF/C glass fiber filter plates (Packard, Meriden, Conn.) using a Tomtec 9600 cell harvester (Tomtec, Hamden, Conn.), washed with 5% TCA and water. The plates were then treated with 50 μl of scintillation fluid and counted using a Packard top count (Packard, Meriden, Conn.). Ki values for inhibitory compounds were determined using the same assay at a series of compound concentrations.
• 100 mM HEPES, pH 7.5 • 1 mM MgCl2 • 100 mM NaCl • 1 mM DTT • 2 nM CAK • 0.3 μM CDK2·FSBA • 1.5% DMSO (compounds are dissolved in DMSO) • 10 μM ATP (specific activity·1.25e9 μCi/mol ATP)

Chain of CDK activating kinase (CAK) from Candida albicans (A0A1D8PH53 entry or part of it): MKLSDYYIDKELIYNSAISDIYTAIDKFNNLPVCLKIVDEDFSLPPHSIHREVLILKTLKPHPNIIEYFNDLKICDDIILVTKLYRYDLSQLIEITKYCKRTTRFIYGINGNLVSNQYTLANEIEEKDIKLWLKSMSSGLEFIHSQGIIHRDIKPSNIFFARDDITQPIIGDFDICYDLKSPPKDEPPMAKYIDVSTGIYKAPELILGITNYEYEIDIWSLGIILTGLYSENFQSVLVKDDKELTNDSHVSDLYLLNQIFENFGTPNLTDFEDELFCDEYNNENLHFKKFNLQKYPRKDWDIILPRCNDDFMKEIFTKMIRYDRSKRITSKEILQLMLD

| SMILES | Ki [nM] |
| --- | --- |
| N#Cc1c(N)c(C(=O)c2ccc(Br)cc2)n2ccccc12 [Compound 11] | 1900 |
| N#Cc1c(N)c(C(=O)c2cccc(I)c2)n2ccccc12 [Compound 1] | 60 |
| N#Cc1c(N)c(C(=O)c2ccc(F)c(F)c2)n2ccccc12 [Compound 8] | 1000 |
| CC(=O)Nc1c(C#N)c2ccccn2c1C(=O)c1ccc(F)cc1 [Compound 13] | > 30000 |
| N#Cc1c(N)c(C(=O)c2ccc(OC(F)(F)F)cc2)n2ccccc12 [Compound 10] | 1500 |
| N#Cc1c(N)c(C(=O)c2ccc(F)cc2)n2ccccc12 [Compound 6] | 880 |
| N#Cc1c(N)c(C(=O)c2cccc(Cl)c2)n2ccccc12 [Compound 3] | 290 |
| COc1ccccc1C(=O)c1c(N)c(C#N)c2ccccn12 [Compound 7] | 940 |
| COc1ccc(C(=O)c2c(N)c(C#N)c3ccccn23)cc1 [Compound 12] | 2400 |
| N#Cc1c(N)c(C(=O)c2ccc(Cl)cc2)n2ccccc12 [Compound 9] | 1300 |
| COc1cccc(C(=O)c2c(N)c(C#N)c3ccccn23)c1 [Compound 2] | 210 |
| N#Cc1c(N)c(C(=O)c2ccc3ccccc3c2)n2ccccc12 [Compound 4] | 540 |
| N#Cc1c(N)c(C(=O)c2ccc(Cl)c(Cl)c2)n2ccccc12 [Compound 5] | 640 |
